Data as given in patent US20130012687A1, “INDUCIBLE SELF-CLEAVING PROTEASE TAG AND METHOD OF PURIFYING RECOMBINANT PROTEINS USING THE SAME” (The Board of Trustees of the Leland Stanford Junior …, priority 2009, published 2013).

Molecular target: Vibrio cholerae MARTX toxin cysteine protease domain (CPD) (Vibrio cholerae serotype O1, UniProt Q9KS12)
Assay type: biochemical
Conditions: increasing amounts of InsP6, 2 hrs at 4° C.

Sequence of Vibrio cholerae MARTX toxin cysteine protease domain (CPD) (Q9KS12 3440-3650 limits assumed): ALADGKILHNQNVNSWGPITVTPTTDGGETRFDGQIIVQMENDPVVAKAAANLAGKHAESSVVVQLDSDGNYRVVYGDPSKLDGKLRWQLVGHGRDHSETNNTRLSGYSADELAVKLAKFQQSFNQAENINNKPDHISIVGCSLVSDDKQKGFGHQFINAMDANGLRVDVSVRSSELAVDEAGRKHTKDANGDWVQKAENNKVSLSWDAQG

`O=P(O)(O)OC1C(OP(=O)(O)O)C(OP(=O)(O)O)C(OP(=O)(O)O)C(OP(=O)(O)O)C1OP(=O)(O)O` (stereo not shown) [InsP6, inositol hexakisphosphate] was tested, and the “release of GFP from Ni2+-NTA agarose beads (CPD autoprocessing)” value was “stimulated the release of GFP”.
